Reference: patent publication US10513522B2, “Azetidinyl phenyl, pyridyl or pyrazinyl carboxamide derivatives as JAK inhibitors” (Incyte Corporation, priority 2011, dated 2019)

System: human JAK1 (a.a. 837-1142)
Test: In vitro JAK kinase assay (HTRF, phosphorylation of biotinylated peptide), JAK1
Format: biochemical
Conditions: ratio of IC50 at 1 mM ATP
Protocol: The catalytic activity of JAK1, JAK2 or JAK3 was assayed by measuring the phosphorylation of a biotinylated peptide. The phosphorylated peptide was detected by homogenous time resolved fluorescence (HTRF). […] Reactions were carried out at room temperature for 1 hour and then stopped with 20 μL 45 mM EDTA, 300 nM SA-APC, 6 nM Eu-Py20 in assay buffer (Perkin Elmer, Boston, Mass.). Binding to the Europium labeled antibody took place for 40 minutes and HTRF signal was measured on a Fusion plate reader (Perkin Elmer, Boston, Mass.).

JAK2/JAK1, A (A means greater than or equal to 10):
C[C@H](NC(=O)c1ccc(N2CC(CC#N)(n3cc(-c4ncnc5[nH]ccc45)cn3)C2)c(F)c1)C1CC1 [Example 5, 4-{3-(Cyanomethyl)-3-[4-(7H-pyrrolo[2,3-d]pyrimidin-4-yl)-1H-pyrazol-1-yl]azetidin-1-yl}-N-[(1S)-1-cyclopropylethyl]-3-fluorobenzamide]
CC(C)NC(=O)c1ccc(N2CC(CC#N)(n3cc(-c4ncnc5[nH]ccc45)cn3)C2)cn1 [Example 9, 5-{3-(Cyanomethyl)-3-[4-(7H-pyrrolo[2,3-d]pyrimidin-4-yl)-1H-pyrazol-1-yl]azetidin-1-yl}-N-isopropylpyridine-2-carboxamide]
CC(C)NC(=O)c1ccc(N2CC(CC#N)(n3cc(-c4ncnc5[nH]ccc45)cn3)C2)cc1 [Example 13, 4-{3-(Cyanomethyl)-3-[4-(7H-pyrrolo[2,3-d]pyrimidin-4-yl)-1H-pyrazol-1-yl]azetidin-1-yl}-N-isopropylbenzamide]
C[C@H](NC(=O)c1ccc(N2CC(CC#N)(n3cc(-c4ncnc5[nH]ccc45)cn3)C2)cc1F)C(F)(F)F [Example 22, 4-{3-(Cyanomethyl)-3-[4-(7H-pyrrolo[2,3-d]pyrimidin-4-yl)-1H-pyrazol-1-yl]azetidin-1-yl}-2-fluoro-N-[(1S)-2,2,2-trifluoro-1-methylethyl]benzamide]
C[C@@H](NC(=O)c1ccc(N2CC(CC#N)(n3cc(-c4ncnc5[nH]ccc45)cn3)C2)c(F)c1)C(F)(F)F [Example 16, 4-{3-(Cyanomethyl)-3-[4-(7H-pyrrolo[2,3-d]pyrimidin-4-yl)-1H-pyrazol-1-yl]azetidin-1-yl}-3-fluoro-N-[(1R)-2,2,2-trifluoro-1-methylethyl]benzamide]
N#CCC1(n2cc(-c3ccnc4[nH]ccc34)cn2)CN(c2cnc(C(=O)NCC(F)(F)F)cn2)C1 [Example 36, 5-{3-(Cyanomethyl)-3-[4-(1H-pyrrolo[2,3-b]pyridin-4-yl)-1H-pyrazol-1-yl]azetidin-1-yl}-N-(2,2,2-trifluoroethyl)pyrazine-2-carboxamide]
C[C@H](NC(=O)c1cnc(N2CC(CC#N)(n3cc(-c4ccnc5[nH]ccc45)cn3)C2)cn1)C(F)(F)F [Example 35, 5-{3-(Cyanomethyl)-3-[4-(1H-pyrrolo[2,3-b]pyridin-4-yl)-1H-pyrazol-1-yl]azetidin-1-yl}-N-[(1S)-2,2,2-trifluoro-1-methylethyl]pyrazine-2-carboxamide]
CCNC(=O)c1ccc(N2CC(CC#N)(n3cc(-c4ncnc5[nH]ccc45)cn3)C2)cn1 [Example 24, 5-{3-(Cyanomethyl)-3-[4-(7H-pyrrolo[2,3-d]pyrimidin-4-yl)-1H-pyrazol-1-yl]azetidin-1-yl}-N-ethylpyridine-2-carboxamide]
C[C@@H](NC(=O)c1ccc(N2CC(CC#N)(n3cc(-c4ncnc5[nH]ccc45)cn3)C2)c(F)c1)C1CC1 [Example 4, 4-{3-(Cyanomethyl)-3-[4-(7H-pyrrolo[2,3-d]pyrimidin-4-yl)-1H-pyrazol-1-yl]azetidin-1-yl}-N-[(1R)-1-cyclopropylethyl]-3-fluorobenzamide]
CC(C)NC(=O)c1ccc(N2CC(CC#N)(n3cc(-c4ncnc5[nH]ccc45)cn3)C2)c(F)c1 [Example 3, 4-{3-(Cyanomethyl)-3-[4-(7H-pyrrolo[2,3-d]pyrimidin-4-yl)-1H-pyrazol-1-yl]azetidin-1-yl}-3-fluoro-N-isopropylbenzamide]
C[C@@H](NC(=O)c1cc(F)c(N2CC(CC#N)(n3cc(-c4ncnc5[nH]ccc45)cn3)C2)cc1F)C(F)(F)F [Example 29, 4-{3-(Cyanomethyl)-3-[4-(7H-pyrrolo[2,3-d]pyrimidin-4-yl)-1H-pyrazol-1-yl]azetidin-1-yl}-2,5-difluoro-N-[(1R)-2,2,2-trifluoro-1-methylethyl]benzamide]
